What was measured:
HT22 cells (OGD/R) [1] = test: Seahorse O2 consumption rate (OCR); assay type: cell-based, mouse; settings: dose-dependent
Procedure: HT22 cells were counted and plated at 8000 cells per well in a Seahorse XF96 Cell Culture Microplate for all experiments (Agilent). They were then treated with VK (0.0735 or 0.735 μM) for 24 h. […] Next, HT22 cells were washed after 24 h of incubation and were incubated in a 0% CO2 chamber at 37 °C for 1 h, before being placed into a Seahorse XFe96 Analyzer (Agilent). In OCR experiment, HT22 cells were treated, with 2 μM of oligomycin, 5 μM of FCCP, and 1 μM of rotenone and antimycin, respectively; to assess ECAR, they were treated with 1 μM of rotenone and antimycin and 50 mM of 2-DG. All OCR and ECAR data were normalized to cell number per well using WAVE (Agilent).

[2] = tested on: platelet aggregation in platelet rich plasma; test: Platelet aggregation function test; assay type: cell-based; settings: VK 0.0091–0.294 µM; rabbit PRP, ADP 6.07 µmol/L, 5 min maximum aggregation rate
Procedure: Platelet aggregation function test. Venous blood from (normal healthy rabbits) was collected in 3 mL sodium citrate anticoagulation vacuum plastic tubes. The collected venous blood was centrifuged for 10 min at 100 × g at 4℃ to obtain the upper plasma, and the platelet rich plasma (PRP) was prepared, centrifuged again for 10 min at 2000 × g at 4°C to draw the upper plasma, the platelet poor plasma (PPP) was prepared and […] to a platelet concentration of 3×10^8 cells/ml was counted. The adjusted PRP was placed into a four-channel platelet aggregation instrument (Agg RAM, Helena Laboratories, USA) to determine the 5 min maximum platelet aggregation rate with adenosine diphosphate (ADP), arachidonic acid (AA), thrombin, collagen (COL) , and platelet-activating factor (PAF) or saline as inducers (at a final […]
Acute toxicity test. Systemic acute toxicity test by peritoneal injection was performed according to the guideline provided by Center for Drug Evaluation and Research. In addition to the normal group, male mice were randomly divided into the treated groups received a single dose of 1.5 mg/kg, 6 mg/kg, 24 mg/kg, 96 mg/kg and 384 body weight of VK. […]
The obtained plasma was analyzed using an automatic coagulation apparatus (CA1500).

HT22 cells (OGD/R) [3] = test: Annexin V-FITC/propidium iodide apoptosis; assay type: cell-based, mouse; settings: Annexin V-FITC/PI flow cytometry
MCAO/R mice [4] = test: Rotarod test; assay type: in vivo, mouse; settings: VK 150 and 300 µg/kg i.p.
Procedure: The mice were placed in a RotaRod Treadmill (Harvard Apparatus, LE8205) for adaptive training 3 days before MACO/R. The rotating rod was started and the speed was set to accelerate to 40 rpm within 5 min. The mice drop time was recorded as an indicator. The test was performed at 24 and 48 h after MCAO/R.

[5] = tested on: BV2 microglia cells (OGD/R); test: BV2 cell viability after OGD/R (CCK8); settings: VK 0.0735, 0.735, 7.35 µM
[6] = tested on: IL-1β, TNF-α, IL-6, IL-8, IL-10 in ischemic cortex; test: Cytokine ELISA in ischemic cortex; assay type: in vivo, mouse; settings: MCAO/R mice, 48 h
Procedure: Mice were decapitated under anesthesia at 48 h after MCAO/R. The IL-1β (Cat# 88-5019-88), TNF-α (Cat# 88-7324-22), IL-6 (Cat# 88-7064-88), and IL-8 (Cat# 88-8086-22) were purchased from Thermo Fisher Scientific. The levels of these proteins were measured by enzyme-linked immune sorbent assays (ELISA) kits, according to the manufacturer’s recommendations.

MCAO/R mice [7] = test: Transmission electron microscopy of BBB; assay type: in vivo, mouse
Procedure: Frontal cortex samples were isolated from mice with stroke and fixed in 2% glutaraldehyde and 4% paraformaldehyde in 0.1 M sodium cacodylate (pH 7.4), treated with 10% gelatin solution in sodium cacodylate buffer, and incubated with 2% osmium tetroxide. Sections were cut using a Leica EM TP ultramicrotome (Leica Microsystems) at 40 nm and placed within grids stained with a 1:1 mix of 3% uranyl acetate and 50% acetone for 30–60 s. Grids were imaged with a JEM 1400 transmission electron microscope (JEOL) at ×1200 for low magnification and ×12,000 for high magnification (unless otherwise noted) using Gatan Microscopy Suite software (Gatan).

brain of MCAO mice = test: Fluorescence imaging of FITC-labeled VK in brain of stroke mice; assay type: in vivo, mouse
Procedure: A successful MCAO model was established and these mice were used for subsequent experiments. Immediately after surgery, FITC or FITC-labeled VK were administered intravenously and mice were killed after 30 min to isolate the brain and imaged by an imaging system (IVIS Lumina II). For fluorescent imaging, the brain was immediately collected and kept in the dark for 0, 30, 60, and 90 min after the administration of VK. Frozen sections were prepared according to the above method (seen Morphological Assessment). Images were acquired by confocal microscopy (FV1000 MPE-B, Olympus).

BV2 cells (OGD/R) = test: qRT-PCR of proinflammatory mediators; assay type: cell-based, mouse; settings: RT-PCR
[8] = tested on: neurons in brain of MCAO/R mice; test: NeuN immunohistochemistry; assay type: in vivo, mouse

In the case of “Gly-Arg-Pro-Hyp-Gly-Phe-Ser-Pro-Phe-Arg-Ile-Asp [VK, Vespakinin-M]”, the “mitochondrial oxygen consumption rate in neurons” value (HT22 cells (OGD/R) [1]) is reported as “accelerated the mitochondrial oxygen consumption rate”, the “ADP-induced platelet aggregation vs control group” value [2] is reported as “decreased” and the “apoptosis of HT22 cells after OGD/R” value (HT22 cells (OGD/R) [3]) is reported as “restrained apoptosis”. For the same substance, the “sensorimotor function, rotarod test” value (MCAO/R mice [4]) was “improved functional performance and ameliorated the sensorimotor asymmetry”, the “OGD/R-reduced viability of BV2 cells” value [5] was “reversed by VK treatment in a dose-dependent manner” and the “IL-10 level in ischemic cortex vs vehicle” value [6] was “increase in IL-10 levels”. The “IL-1β, TNF-α, IL-6 and IL-8 levels in cortex of the ischemic hemisphere vs vehicle” value ([6]; VK 150 and 300 µg/kg) was “decreased IL-1β, TNF-α, IL-6, and IL-8 levels”, the “BBB integrity, TEM” value (MCAO/R mice [7]) was “could maintain BBB integrity” and the “accumulation in brain, in vivo imaging” value (brain of MCAO mice; FITC-labeled VK i.v. to stroke mice, brain imaged after 30 min (IVIS Lumina II)) was “slightly accumulate in the ischemic region”. For the same substance, the “penetration of BBB and cell membrane (conclusion)” value (brain of MCAO mice; under conditions such as cerebral I/R) was “can cross the BBB and cell membrane”, the “OGD/R-increased expression of proinflammatory cytokines in BV2 cells” value (BV2 cells (OGD/R)) was “remarkably blocked these effects” and the “number of NeuN-positive cells” value [8] was “greater than that in the vehicle-treated group”.
